In the NIST ThermoML archive (doi:10.1021/je3007953):
Numbers after ± are expanded uncertainties.

Columns and labels:
[1] = molar heat capacity at constant pressure; xn = mol fraction of the nth substance listed; conditions: Liquid, Small sample (50 mg) DSC
[2] = xn = mol fraction of the nth substance listed; conditions: Liquid, Vibrating tube method

Compound: C[n+]1ccn(CCO)c1.[Cl-] [1-(2-hydroxyethyl)-3-methyl-1H-imidazolium chloride] + O
- molar heat capacity at constant pressure ([1]; 298.15 K, x1 = 0.0122): 75.34 ± 1.2 J/K/mol
- molar heat capacity at constant pressure ([1]; 298.15 K, x1 = 0.0453): 79.99 ± 1.3 J/K/mol
- molar heat capacity at constant pressure ([1]; 298.15 K, x1 = 0.0997): 88.41 ± 1.4 J/K/mol
- molar heat capacity at constant pressure ([1]; 298.15 K, x1 = 0.2054): 107.22 ± 1.7 J/K/mol
- molar heat capacity at constant pressure ([1]; 298.15 K, x1 = 0.3071): 124.59 ± 1.9 J/K/mol
- molar heat capacity at constant pressure ([1]; 303.15 K, x1 = 0.0122): 75.7 ± 1.2 J/K/mol
- molar heat capacity at constant pressure ([1]; 303.15 K, x1 = 0.0453): 80.58 ± 1.3 J/K/mol
- molar heat capacity at constant pressure ([1]; 303.15 K, x1 = 0.0997): 89.25 ± 1.4 J/K/mol
- molar heat capacity at constant pressure ([1]; 303.15 K, x1 = 0.2054): 108.22 ± 1.7 J/K/mol
- molar heat capacity at constant pressure ([1]; 303.15 K, x1 = 0.3071): 125.97 ± 1.9 J/K/mol
- molar heat capacity at constant pressure ([1]; 308.15 K, x1 = 0.0122): 76.07 ± 1.2 J/K/mol
- molar heat capacity at constant pressure ([1]; 308.15 K, x1 = 0.0453): 81.14 ± 1.3 J/K/mol
- molar heat capacity at constant pressure ([1]; 308.15 K, x1 = 0.0997): 90.1 ± 1.4 J/K/mol
- molar heat capacity at constant pressure ([1]; 308.15 K, x1 = 0.2054): 109.32 ± 1.7 J/K/mol
- molar heat capacity at constant pressure ([1]; 308.15 K, x1 = 0.3071): 127.4 ± 2 J/K/mol
- molar heat capacity at constant pressure ([1]; 313.15 K, x1 = 0.0122): 76.41 ± 1.2 J/K/mol
- molar heat capacity at constant pressure ([1]; 313.15 K, x1 = 0.0453): 81.68 ± 1.3 J/K/mol
- molar heat capacity at constant pressure ([1]; 313.15 K, x1 = 0.0997): 90.91 ± 1.4 J/K/mol
- molar heat capacity at constant pressure ([1]; 313.15 K, x1 = 0.2054): 110.27 ± 1.7 J/K/mol
- molar heat capacity at constant pressure ([1]; 313.15 K, x1 = 0.3071): 128.97 ± 2 J/K/mol
- molar heat capacity at constant pressure ([1]; 318.15 K, x1 = 0.0122): 76.86 ± 1.2 J/K/mol
- molar heat capacity at constant pressure ([1]; 318.15 K, x1 = 0.0453): 82.39 ± 1.3 J/K/mol
- molar heat capacity at constant pressure ([1]; 318.15 K, x1 = 0.0997): 91.91 ± 1.4 J/K/mol
- molar heat capacity at constant pressure ([1]; 318.15 K, x1 = 0.2054): 111.66 ± 1.7 J/K/mol
- molar heat capacity at constant pressure ([1]; 318.15 K, x1 = 0.3071): 130.65 ± 2 J/K/mol
- molar heat capacity at constant pressure ([1]; 323.15 K, x1 = 0.0122): 77.24 ± 1.2 J/K/mol
- molar heat capacity at constant pressure ([1]; 323.15 K, x1 = 0.0453): 83.01 ± 1.3 J/K/mol
- molar heat capacity at constant pressure ([1]; 323.15 K, x1 = 0.0997): 92.79 ± 1.4 J/K/mol
- molar heat capacity at constant pressure ([1]; 323.15 K, x1 = 0.2054): 112.94 ± 1.8 J/K/mol
- molar heat capacity at constant pressure ([1]; 323.15 K, x1 = 0.3071): 132.15 ± 2.1 J/K/mol
- molar heat capacity at constant pressure ([1]; 328.15 K, x1 = 0.0122): 77.61 ± 1.2 J/K/mol
- molar heat capacity at constant pressure ([1]; 328.15 K, x1 = 0.0453): 83.57 ± 1.3 J/K/mol
- molar heat capacity at constant pressure ([1]; 328.15 K, x1 = 0.0997): 93.66 ± 1.5 J/K/mol
- molar heat capacity at constant pressure ([1]; 328.15 K, x1 = 0.2054): 114.19 ± 1.8 J/K/mol
- molar heat capacity at constant pressure ([1]; 328.15 K, x1 = 0.3071): 133.71 ± 2.1 J/K/mol
- molar heat capacity at constant pressure ([1]; 333.15 K, x1 = 0.0122): 77.97 ± 1.2 J/K/mol
- molar heat capacity at constant pressure ([1]; 333.15 K, x1 = 0.0453): 84.16 ± 1.3 J/K/mol
- molar heat capacity at constant pressure ([1]; 333.15 K, x1 = 0.0997): 94.54 ± 1.5 J/K/mol
- molar heat capacity at constant pressure ([1]; 333.15 K, x1 = 0.2054): 115.52 ± 1.8 J/K/mol
- molar heat capacity at constant pressure ([1]; 333.15 K, x1 = 0.3071): 135.39 ± 2.1 J/K/mol
- molar heat capacity at constant pressure ([1]; 338.15 K, x1 = 0.0122): 78.39 ± 1.2 J/K/mol
- molar heat capacity at constant pressure ([1]; 338.15 K, x1 = 0.0453): 84.85 ± 1.3 J/K/mol
- molar heat capacity at constant pressure ([1]; 338.15 K, x1 = 0.0997): 95.51 ± 1.5 J/K/mol
- molar heat capacity at constant pressure ([1]; 338.15 K, x1 = 0.2054): 117 ± 1.8 J/K/mol
- molar heat capacity at constant pressure ([1]; 338.15 K, x1 = 0.3071): 137.33 ± 2.1 J/K/mol
- molar heat capacity at constant pressure ([1]; 343.15 K, x1 = 0.0122): 78.9 ± 1.2 J/K/mol
- molar heat capacity at constant pressure ([1]; 343.15 K, x1 = 0.0453): 85.64 ± 1.3 J/K/mol
- molar heat capacity at constant pressure ([1]; 343.15 K, x1 = 0.0997): 96.65 ± 1.5 J/K/mol
- molar heat capacity at constant pressure ([1]; 343.15 K, x1 = 0.2054): 118.67 ± 1.9 J/K/mol
- molar heat capacity at constant pressure ([1]; 343.15 K, x1 = 0.3071): 139.45 ± 2.2 J/K/mol
- molar heat capacity at constant pressure ([1]; 348.15 K, x1 = 0.0122): 79.24 ± 1.2 J/K/mol
- molar heat capacity at constant pressure ([1]; 348.15 K, x1 = 0.0453): 86.2 ± 1.3 J/K/mol
- molar heat capacity at constant pressure ([1]; 348.15 K, x1 = 0.0997): 97.49 ± 1.5 J/K/mol
- molar heat capacity at constant pressure ([1]; 348.15 K, x1 = 0.2054): 120.06 ± 1.9 J/K/mol
- molar heat capacity at constant pressure ([1]; 348.15 K, x1 = 0.3071): 141.39 ± 2.2 J/K/mol
- molar heat capacity at constant pressure ([1]; 353.15 K, x1 = 0.0122): 79.67 ± 1.2 J/K/mol
- molar heat capacity at constant pressure ([1]; 353.15 K, x1 = 0.0453): 86.89 ± 1.4 J/K/mol
- molar heat capacity at constant pressure ([1]; 353.15 K, x1 = 0.0997): 98.46 ± 1.5 J/K/mol
- molar heat capacity at constant pressure ([1]; 353.15 K, x1 = 0.2054): 121.68 ± 1.9 J/K/mol
- molar heat capacity at constant pressure ([1]; 353.15 K, x1 = 0.3071): 143.57 ± 2.2 J/K/mol
- mass density ([2]; 298.15 K, x1 = 0.0122): 1016.85 ± 0.27 kg/m3
- mass density ([2]; 298.15 K, x1 = 0.0453): 1059.73 ± 0.22 kg/m3
- mass density ([2]; 298.15 K, x1 = 0.0997): 1107.52 ± 0.16 kg/m3
- mass density ([2]; 298.15 K, x1 = 0.2054): 1136.95 ± 0.15 kg/m3
- mass density ([2]; 298.15 K, x1 = 0.3071): 1187.93 ± 0.15 kg/m3
- mass density ([2]; 303.15 K, x1 = 0.0122): 1015.23 ± 0.27 kg/m3
- mass density ([2]; 303.15 K, x1 = 0.0453): 1057.69 ± 0.22 kg/m3
- mass density ([2]; 303.15 K, x1 = 0.0997): 1105.14 ± 0.13 kg/m3
- mass density ([2]; 303.15 K, x1 = 0.2054): 1134.43 ± 0.13 kg/m3
- mass density ([2]; 303.15 K, x1 = 0.3071): 1185.25 ± 0.15 kg/m3
- mass density ([2]; 308.15 K, x1 = 0.0122): 1013.43 ± 0.26 kg/m3
- mass density ([2]; 308.15 K, x1 = 0.0453): 1055.55 ± 0.21 kg/m3
- mass density ([2]; 308.15 K, x1 = 0.0997): 1102.71 ± 0.13 kg/m3
- mass density ([2]; 308.15 K, x1 = 0.2054): 1131.88 ± 0.13 kg/m3
- mass density ([2]; 308.15 K, x1 = 0.3071): 1182.56 ± 0.15 kg/m3
- mass density ([2]; 313.15 K, x1 = 0.0122): 1011.46 ± 0.26 kg/m3
- mass density ([2]; 313.15 K, x1 = 0.0453): 1053.3 ± 0.2 kg/m3
- mass density ([2]; 313.15 K, x1 = 0.0997): 1100.22 ± 0.13 kg/m3
- mass density ([2]; 313.15 K, x1 = 0.2054): 1129.28 ± 0.13 kg/m3
- mass density ([2]; 313.15 K, x1 = 0.3071): 1179.87 ± 0.15 kg/m3
- mass density ([2]; 318.15 K, x1 = 0.0122): 1009.27 ± 0.26 kg/m3
- mass density ([2]; 318.15 K, x1 = 0.0453): 1050.94 ± 0.21 kg/m3
- mass density ([2]; 318.15 K, x1 = 0.0997): 1097.68 ± 0.12 kg/m3
- mass density ([2]; 318.15 K, x1 = 0.2054): 1126.66 ± 0.12 kg/m3
- mass density ([2]; 318.15 K, x1 = 0.3071): 1177.16 ± 0.15 kg/m3
- mass density ([2]; 323.15 K, x1 = 0.0122): 1005.9 ± 0.27 kg/m3
- mass density ([2]; 323.15 K, x1 = 0.0453): 1048.46 ± 0.22 kg/m3
- mass density ([2]; 323.15 K, x1 = 0.0997): 1095.08 ± 0.18 kg/m3
- mass density ([2]; 323.15 K, x1 = 0.2054): 1123.99 ± 0.13 kg/m3
- mass density ([2]; 323.15 K, x1 = 0.3071): 1174.45 ± 0.15 kg/m3
